# Source: patent publication US8389557B2, “Triazole derivatives useful as Axl inhibitors” (Rigel Pharmaceuticals, Inc., priority 2005, dated 2013)
# Target: T1, Axl (Homo sapiens, UniProt P30530)
# T1 construct: endogenous in cells; host or cells: HeLa cells
# T1 sequence (P30530 26-894): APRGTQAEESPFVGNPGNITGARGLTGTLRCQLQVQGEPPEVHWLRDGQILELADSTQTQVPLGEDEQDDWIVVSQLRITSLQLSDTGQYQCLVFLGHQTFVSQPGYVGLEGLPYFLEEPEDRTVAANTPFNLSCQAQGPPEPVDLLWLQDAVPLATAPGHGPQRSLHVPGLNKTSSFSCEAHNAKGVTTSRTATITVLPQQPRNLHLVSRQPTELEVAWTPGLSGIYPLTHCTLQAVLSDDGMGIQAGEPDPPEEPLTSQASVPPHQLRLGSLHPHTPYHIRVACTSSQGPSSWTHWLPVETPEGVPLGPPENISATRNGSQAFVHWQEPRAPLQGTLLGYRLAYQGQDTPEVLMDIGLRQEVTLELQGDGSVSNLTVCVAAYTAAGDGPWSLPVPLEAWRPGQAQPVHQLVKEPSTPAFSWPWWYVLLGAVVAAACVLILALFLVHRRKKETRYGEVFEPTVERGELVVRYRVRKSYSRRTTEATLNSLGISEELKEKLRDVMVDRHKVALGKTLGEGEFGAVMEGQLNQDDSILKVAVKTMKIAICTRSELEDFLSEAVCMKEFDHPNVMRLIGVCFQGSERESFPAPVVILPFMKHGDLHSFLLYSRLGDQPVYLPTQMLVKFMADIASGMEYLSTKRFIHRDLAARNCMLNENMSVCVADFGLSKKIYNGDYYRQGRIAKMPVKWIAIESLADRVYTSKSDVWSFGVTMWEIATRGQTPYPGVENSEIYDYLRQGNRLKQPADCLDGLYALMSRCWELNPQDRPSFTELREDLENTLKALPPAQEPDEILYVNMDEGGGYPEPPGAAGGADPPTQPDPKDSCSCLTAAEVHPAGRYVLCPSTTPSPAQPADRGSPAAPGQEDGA
# Experiment: Phospho-Akt in-cell Western assay (inhibition of Axl activity)
# Format: cell-based
# Description: The compounds of the invention were tested in the following assay for their ability to inhibit Axl activity.
# Phospho-Akt in-Cell Western Assay
# • Cell culture plate: 96 well assay plate (Corning 3610), white, clear bottom, tissue-culture treated. • Cells: Hela cells. • Starvation medium: For Axl stimulation: 0.5% FCS (fetal calf serum) in DMEM, plus Axl/Fc (extracellular domain of AXL fused to immunoglobulin Fc region) (R&D, 154-AL) 500 ng/mL. • For EGF (epidermal growth factor) stimulation: 0.5% FCS in DMEM (Dulbecco's modified Eagles medium). • Poly-L-Lysine 0.01% solution (the working solution): 10 μg/ml, dilute In PBS (phosphate buffered saline). • Axl antibody cross-linking: • 1st: Mouse anti-Axl (R&D, MAB154). • 2nd: Biotin-SP-conjugated AffiniPure goat anti-mouse IgG (H+L) (Jackson ImmunoResearch #115-065-003). • Fixing buffer: 4% formaldehyde in PBS. • Wash buffer: 0.1% TritonX-100 in PBS. • Quenching buffer: 3% H2O2, 0.1% Azide in wash buffer, Azide and hydrogen peroxide (H2O2) are added fresh. • Blocking buffer: 5% BSA in TBST (tris buffered saline plus 0.1% Tween 20). • Primary antibody: Rabbit anti-human Phospho-Akt antibody (Cell Signaling 9271): 1×250 diluted in blocking buffer. • Secondary antibody: HRP (horse radish peroxidase)-conjugated Goat anti-Rabbit secondary, stock solution: Jackson ImmunoResearch (Goat anti-Rabbit HRP, #111-035-144) 1:1 diluted in glycerol, store at −20° C. The working solution: 1×2000 dilution of stock in blocking buffer. • Chemiluminescent working solution (Pierce, 37030): SuperSignal ELISA (enzyme linked immunosorbant assay) Pico Chemiluminescent substrate. • Crystal Violet solution: Stock: 2.5% Crystal violet in methanol, filtered and kept at ambient temperature. The working solution: dilute the stock 1:20 with PBS immediately before use. • 10% SDS: working solution: 5% SDS (sodium dodecylsulfate), diluted in PBS Methods: Day 1:
# A 96 well TC (tissue culture treated) plate was coated with 10 μg/mL poly-L-Lysine at 37° C. for 30 min, washed twice with PBS, and air-dried for 5 minutes before cells were added. Hela cells were seeded at 10,000 cells/well and the cells were starved in 100 μL starvation medium containing Axl/Fc for 24 hrs.
# The cells were pre-treated with test compounds by adding 100 μL of 2× test compound to the starvation medium on the cells. The cells were incubated at 37° C. for 1 hr before stimulation.
# The cells were stimulated by Axl-antibody cross-linking as follows: A 5×1st/2nd Axl antibody mixture was made (37.5 μg/mL 1st/100 μg/mL 2nd) in starvation medium and nutated at 4° C. with thorough mixing for 1-2 hours for clustering. The resulting mix was warmed to 37° C. 50 μL of 5× Axl 1st/2nd of antibody cluster was added to the cells and the cells were incubated at 37° C. for 5 min.
# After 5 minutes stimulation, the plate was flicked to remove medium and the plate was tapped onto paper towels. Formaldehyde (4.0% in PBS, 100 μL) was added to fix the cells and the cells were incubated at ambient temperature for 20 min without shaking.
# The cells were washed with a plate washer buffer to remove the formaldehyde solution. The plate was flicked to removed excess wash buffer and tapped onto paper towels. Quenching buffer (100 μL) was added to each well and the cells were incubated at ambient temperature for 20 minutes without shaking.
# The cells were washed with a plate washer buffer to remove the quenching buffer. Blocking buffer (100 μL) was added and the cells were incubated at ambient temperature for at least an hour with gentle shaking.
# The cells were washed with a plate washer buffer and diluted primary antibody (50 μL) was added to each well (blocking buffer was added to the negative control wells instead). The plates were incubated overnight at 4° C. with gentle shaking.
# The wash buffer was removed, diluted secondary antibody (100 μL) was added, and the cells were incubated at ambient temperature for 1 hour with gentle shaking. […]
# [1] = Table 7, Hela cells, Axl antibody cross-linking stimulation, phospho-Akt chemiluminescence
# [2] = Table 2, Hela cells, Axl antibody cross-linking stimulation, phospho-Akt chemiluminescence
# [3] = inhibition of Axl activity, Table 1
# [4] = Table 5, Hela cells, Axl antibody cross-linking stimulation, phospho-Akt chemiluminescence
IC50 [3],SMILES,further results
–,"CN(C)c1ccc(NC(=O)n2nc(Nc3ccc(OCCN4CCCCC4)cc3)nc2N)cc1 [compound 44, 5-amino-N-(4-(dimethylamino)phenyl)-3-[4-[2-(piperidin-1-yl)ethoxy]phenylamino]-1H-1,2,4-triazole-1-carboxamide]",IC50 [1]: 1000 to 10000 nM
–,"Nc1nc(Nc2ccc(OCCN3CCCCC3)cc2)nn1C(=O)NC1CCCC1 [compound 45, 5-amino-N-cyclopentyl-3-[4-[2-(piperidin-1-yl)ethoxy]phenylamino]-1H-1,2,4-triazole-1-carboxamide]",IC50 [1]: 1000 to 10000 nM
–,"CCCCOc1ccc(NC(=O)n2nc(Nc3ccc(OCCN4CCCCC4)cc3)nc2N)cc1 [compound 46, 5-amino-N-(4-butoxyphenyl)-3-[4-[2-(piperidin-1-yl)ethoxy]phenylamino]-1H-1,2,4-triazole-1-carboxamide]",IC50 [1]: 1000 to 10000 nM
–,"CC(C)Oc1ccc(C(=O)n2nc(N)nc2Nc2ccc(OCCN3CCCCC3)cc2)cc1 [compound 47, 3-amino-1-(4-(iso-propoxy)phenyl)carbonyl-5-[4-[2-(piperidin-1-yl)ethoxy]phenylamino]-1H-1,2,4-triazole]",IC50 [2]: > 20000 nM
< 1000 nM,"CC(C)Oc1ccc(C(=O)n2nc(Nc3ccc(N4CCOCC4)cc3)nc2N)cc1 [compound 48, 5-amino-1-(4-(iso-propoxy)phenyl)carbonyl-3-(4-(morpholin-4-yl)phenylamino]-1H-1,2,4-triazole]",–
–,"CC(C)Oc1ccc(C(=O)n2nc(N)nc2Nc2ccc(N3CCOCC3)cc2)cc1 [compound 49, 3-amino-1-(4-(iso-propoxy)phenyl)carbonyl-5-(4-(morpholin-4-yl)phenylamino]-1H-1,2,4-triazole]",IC50 [2]: > 20000 nM
< 1000 nM,"CC(C)c1ccc(C(=O)n2nc(Nc3ccc(OCCN4CCCCC4)cc3)nc2N)cc1 [compound 51, 5-amino-1-(4-(iso-propyl)phenyl)carbonyl-3-[4-[2-(piperidin-1-yl)ethoxy]phenylamino]-1H-1,2,4-triazole]",–
< 1000 nM,"CC(C)c1ccc(C(=O)n2nc(Nc3ccc(N4CCOCC4)cc3)nc2N)cc1 [compound 52, 5-amino-1-(4-(iso-propyl)phenyl)carbonyl-3-(4-(morpholin-4-yl)phenylamino]-1H-1,2,4-triazole]",–
< 1000 nM,"Cc1ccc(C(=O)n2nc(Nc3ccc(OCCN4CCCCC4)cc3)nc2N)cc1 [compound 53, 5-amino-1-(4-(methyl)phenyl)carbonyl-3-[4-[2-(piperidin-1-yl)ethoxy]phenylamino]-1H-1,2,4-triazole]",–
< 1000 nM,"Cc1ccc(C(=O)n2nc(Nc3ccc(N4CCOCC4)cc3)nc2N)cc1 [compound 54, 5-amino-1-(4-(methyl)phenyl)carbonyl-3-(4-(morpholin-4-yl)phenylamino)-1H-1,2,4-triazole]",–
< 1000 nM,"Cc1ccc(C(=O)n2nc(Nc3ccc(OC(C)C)cc3)nc2N)cc1 [compound 55, 5-amino-3-[4-(iso-propoxy)phenylamino]-1-(4-(methyl)phenyl)carbonyl-1H-1,2,4-triazole]",–
–,"Cc1ccc(C(=O)n2nc(N)nc2Nc2ccc(OC(C)C)cc2)cc1 [compound 56, 3-amino-5-[4-(iso-propoxy)phenylamino]-1-(4-(methyl)phenyl)carbonyl-1H-1,2,4-triazole]",IC50 [2]: > 20000 nM
–,"CC(C)(C)Oc1ccc(C(=O)n2nc(N)nc2Nc2ccc(N3CCOCC3)cc2)cc1 [compound 58, 3-amino-5-(4-(morpholin-4-yl)phenylamino)-1-(4-(tert-butoxy)phenyl)carbonyl-1H-1,2,4-triazole]",IC50 [2]: > 20000 nM
< 1000 nM,"Cc1cccc(C(=O)n2nc(Nc3ccc(OCCN4CCCCC4)cc3)nc2N)c1 [compound 59, 5-amino-1-(3-(methyl)phenyl)carbonyl-3-[4-[2-(piperidin-1-yl)ethoxy]phenylamino]-1H-1,2,4-triazole]",–
< 1000 nM,CC(C)Oc1ccc(C(=O)n2nc(Nc3ccc(OCCN4CCSCC4)cc3)nc2N)cc1 [compound 60],–
1000 to 10000 nM,Cc1cccc(C(=O)n2nc(Nc3ccc(OCCN4CCSCC4)cc3)nc2N)c1 [compound 61],–
1000 to 10000 nM,"Nc1nc(Nc2ccc(OCCN3CCCCC3)cc2)nn1C(=O)c1ccc(C2CCCCC2)cc1 [compound 62, 5-amino-1-(4-(cyclohexyl)phenyl)carbonyl-3-[4-[2-(piperidin-1-yl)ethoxy]phenylamino]-1H-1,2,4-triazole]",–
–,"CC(C)Oc1ccc(C(=O)n2nc(Nc3ccc4c(c3)NC(=O)C(F)(F)O4)nc2N)cc1 [compound 63, 5-amino-3-(2,2-difluoro-2H-benzo[b][1,4]oxazin-3(4H)-on-6-yl)amino-1-(4-(iso-propoxy)phenyl)carbonyl-1H-1,2,4-triazole]",IC50 [4]: > 20000 nM
–,"Cc1cccc(C(=O)n2nc(Nc3ccc4c(c3)NC(=O)C(F)(F)O4)nc2N)c1 [compound 64, 5-amino-3-(2,2-difluoro-2H-benzo[b][1,4]oxazin-3(4H)-on-6-yl)amino-1-(3-(methyl)phenyl)carbonyl-1H-1,2,4-triazole]",IC50 [4]: > 20000 nM
–,"CC(C)Oc1ccc(Nc2nc(N)n(C(=O)c3ccc4c(c3)NC(=O)C(C)(C)O4)n2)cc1 [compound 65, 5-amino-1-(2,2-dimethyl-2H-benzo[b][1,4]oxazin-3(4H)-on-6-yl)carbonyl-3-(4-(iso-propoxy)phenyl)amino-1H-1,2,4-triazole]","IC50 (Table 3, Hela cells, Axl antibody cross-linking stimulation, phospho-Akt chemiluminescence): 1000 to 10000 nM"

SMILES,IC50 [3],further results
"CC(C)(C)Oc1ccc(C(=O)n2nc(Nc3ccc(OCCN4CCCCC4)cc3)nc2N)cc1 [compound 50, 5-amino-3-[4-[2-(piperidin-1-yl)ethoxy]phenylamino]-1-(4-(tert-butoxy)phenyl)carbonyl-1H-1,2,4-triazole]",< 1000 nM,–
"CC(C)(C)Oc1ccc(C(=O)n2nc(Nc3ccc(N4CCOCC4)cc3)nc2N)cc1 [compound 57, 5-amino-3-(4-(morpholin-4-yl)phenylamino)-1-(4-(tert-butoxy)phenyl)carbonyl-1H-1,2,4-triazole]",< 1000 nM,–
